{
  "source": "patent US10561846B2",
  "about": "(priority 2000, dated 2020)",
  "key": {"[1]": {"test_system": "human macrophage cultures", "assay": "TNF release from LPS-stimulated human macrophage cultures (TNF ELISA)", "assay_type": "cell-based", "conditions": "for EC50: Macrophage, human macrophages, LPS 100 ng/ml 4 h, n=9, read-out: E.C.50, effective concentration that inhibited 50% of the TNF response"}, "[2]": {"test_system": "Murine RAW 264.7 macrophage-like cells", "conditions": "nicotine 0.1-100 µM, 5 min before LPS 500 ng/ml, medium collected after 20 hr (FIG. 15)", "procedure": "Experiments were performed to determine whether the inhibitory effect of cholinergic agonists on proinflammatory cytokines applied to HMG-1. Murine RAW 264.7 macrophage-like cells (American Type Culture Collection, Rockville, Md., USA) were grown in culture under DMEM supplemented with 10% fetal bovine serum and 1% glutamine. When the cells were 70-80% confluent, the medium was replaced by serum-free OPTI-MEM 1 medium. […] Culture medium was collected after 20 hr. The culture medium was concentrated with a Centricon T 10 filter, then analyzed by western blot, using an anti-HMG-1polyclonal antisera (WO 00/47104) and standard methods. Band densities were determined using a Bio-Rad Imaging densitometer."}, "TNF mRNA": {"test_system": "TNF mRNA", "assay": "RNase protection assay of TNF mRNA in LPS-stimulated macrophages", "assay_type": "cell-based, human", "conditions": "agonist 100 µM, 5 min before 2 hour LPS 100 ng/ml (FIG. 2)"}, "[3]": {"test_system": "nicotinic or muscarinic acetylcholine receptors"}, "IL-6": {"test_system": "IL-6", "assay": "IL-6 release from LPS-stimulated human macrophage cultures (ELISA)", "assay_type": "cell-based", "conditions": "ACh with pyridostigmine bromide 1 mM, LPS 100 ng/ml, 20 hours (FIG. 6)", "description": "(§1) To assess specificity, the release of other macrophage-derived cytokines was measured in LPS-stimulated macrophage cultures treated with acetylcholine. In those experiments, human macrophage cultures were incubated with ACh at the indicated concentrations in the presence of pyridostigmine bromide (1 mM) and LPS (100 ng/ml) for 20 hours. IL-1β (FIG. 5), IL-6 (FIG. 6) and IL-10 (FIG. 8) levels were measured in media using commercially available ELISA kits (R&D Systems Inc., Minneapolis, Minn.). IL-18 (FIG. 7) levels were determined by specific ELISA (Medical & Biological Laboratories Co., Ltd., Nagoya, Japan). Each sample was analyzed in triplicate. Data are expressed as Mean.+−.SEM from 4 separate experiments using macrophages prepared from 4 separate healthy donors."}, "IL-18": {"test_system": "IL-18", "assay": "IL-18 release from LPS-stimulated human macrophage cultures (ELISA)", "assay_type": "cell-based", "conditions": "ACh with pyridostigmine bromide 1 mM, LPS 100 ng/ml, 20 hours (FIG. 7)", "description": "as §1"}, "IL-10": {"test_system": "IL-10", "assay": "IL-10 release from LPS-stimulated human macrophage cultures (ELISA)", "assay_type": "cell-based", "conditions": "ACh with pyridostigmine bromide 1 mM, LPS 100 ng/ml, 20 hours (FIG. 8)", "description": "as §1"}, "macrophage cultures": {"test_system": "macrophage cultures", "assay": "MTT staining and Trypan blue exclusion of macrophage cultures treated with LPS and acetylcholine", "assay_type": "cell-based, human", "conditions": "macrophage cultures treated with LPS and acetylcholine (not shown)"}, "IL-6 mRNA": {"test_system": "IL-6 mRNA", "assay": "IL-6 mRNA levels, colorimetric microplate assay (Quantikine mRNA)", "assay_type": "cell-based, human", "conditions": "LPS-stimulated macrophages; n=3; LPS alone 1716", "description": "(§2) The molecular mechanism of acetylcholine inhibition of IL-1β and IL-6 was investigated further by measuring gene-specific mRNA levels with biotin-labeled capture oligonucleotide probes in a calorimetric microplate assay (Quantikine mRNA, R&D Systems, Inc., Minneapolis, Minn.)."}, "TNF": {"test_system": "TNF", "assay": "TNF immunohistochemistry of cell-associated TNF in human macrophage cultures", "assay_type": "cell-based", "conditions": "ACh 100 µM, 5 min before LPS 100 ng/ml, fixed after 2 hours (FIG. 3)", "description": "TNF immunohistochemistry was performed as follows. Human macrophages were differentiated as described above, and grown on glass chamber slides (Nunc, Naperville, Ill.). Slides were incubated in a blocking solution (1% BSA, 5% normal goat serum, 0.3% Triton X-100 in PBS) for 1 hour at room temperature and then incubated for 24 hours at 4° C. with a primary mouse anti-human TNF monoclonal antibody (Genzyme, Cambridge, Mass.) diluted 1:100 in PBS containing 0.3% Triton X-100, 0.1% BSA, and 3% normal goat serum. Washed sections were incubated for 2 hours with secondary biotinylated anti-mouse IgG (1:200, Vector Laboratories, Inc., Burlingame, Calif.). The reaction product was visualized with 0.003% hydrogen peroxide and 0.05% 3,3′-diaminobenzidine tetrahydrochloride as a chromogen. Negative controls were incubated in the absence of primary antibodies (not shown). Slides were analyzed on a light microscope (Olympus BX60, Japan) using a MetaMorth Imaging System (Universal Imaging Co., West Chester, Pa.).\nTo determine whether acetylcholine inhibited macrophage TNF synthesis or macrophage TNF release, monoclonal anti-TNF antibodies were used to label cell-associated TNF in human macrophage cultures. In those experiments (FIG. 3), cells were exposed to either ACh (100 µM), either alone or in the presence of pyridostigmine bromide (1 mM), five minutes before LPS (100 ng/ml) treatment. […]"}, "[4]": {"test_system": "differentiated human macrophages", "assay": "Acetylcholine suppression of cytokine synthesis (TNF), 'our own studies' compared with macrophage data", "assay_type": "cell-based", "conditions": "printed as differentiated human macrophages, n=3, read-out: E.C.50 for inhibiting TNF"}, "IL-1β": {"test_system": "IL-1β", "assay": "IL-1β release from LPS-stimulated human macrophage cultures (ELISA)", "assay_type": "cell-based", "conditions": "ACh with pyridostigmine bromide 1 mM, LPS 100 ng/ml, 20 hours (FIG. 5)", "description": "as §1"}, "IL-1β mRNA": {"test_system": "IL-1β mRNA", "assay": "IL-1β mRNA levels, colorimetric microplate assay (Quantikine mRNA)", "assay_type": "cell-based, human", "conditions": "acetylcholine 100 nM, LPS 2 hours; n=3; LPS alone 1974", "description": "as §2"}, "[5]": {"conditions": "human macrophage cultures, LPS 100 ng/ml for 4 hours (FIG. 1)"}, "[6]": {"conditions": "ACh with pyridostigmine bromide 1 mM"}},
  "note": "Read-outs that look alike come from different tables or passages of the source.",
  "data": [
    {"smiles": "C[N+](C)(C)CCOC(N)=O", "note": "[carbachol]", "values": [
      {"measurement": "inhibition of TNF release", "setting": "[1]; [5]", "value": "Inhibition of TNF was also observed"}
    ]},
    {"smiles": "CN1CCCC1c1cccnc1", "note": "(centres unmarked) [nicotine]", "values": [
      {"measurement": "HMG-1 production", "setting": "[2]", "value": "inhibited HMG-1 production in a dose-dependent manner"},
      {"measurement": "EC50", "setting": "[1]; [6]", "value": 8.3, "unit": "nM"},
      {"measurement": "inhibition of TNF release", "setting": "[1]; [5]", "value": "inhibited TNF release in a dose dependent manner"},
      {"measurement": "TNF mRNA levels", "setting": "TNF mRNA", "value": "do not reduce LPS-stimulated TNF mRNA levels"}
    ]},
    {"smiles": "CN1[C@@H]2CC[C@H]1C[C@@H](OC(=O)C(CO)c1ccccc1)C2", "note": "(some centres unmarked) [atropine]", "values": [
      {"measurement": "TNF production in vehicle-treated cultures", "setting": "[3]; without acetylcholine (not shown)", "value": "Neither atropine nor α-conotoxin altered TNF production"}
    ]},
    {"smiles": "C[C@@H]1O[C@H](C[N+](C)(C)C)C[C@H]1O", "note": "[muscarine]", "values": [
      {"measurement": "EC50", "setting": "[1]; P<0.01 vs nicotine or acetylcholine", "value": 42400, "unit": "nM"},
      {"measurement": "inhibition of TNF release", "setting": "[1]; [5]", "value": "inhibited TNF release in a dose dependent manner"},
      {"measurement": "TNF mRNA levels", "setting": "TNF mRNA", "value": "do not reduce LPS-stimulated TNF mRNA levels"}
    ]},
    {"smiles": "CC(=O)OCC[N+](C)(C)C.[Cl-]", "note": "[acetylcholine, acetylcholine chloride]", "values": [
      {"measurement": "inhibition of TNF release", "setting": "[3]", "value": 80, "unit": "%"},
      {"measurement": "IL-6 release", "setting": "IL-6", "value": "dose-dependently inhibits the release"},
      {"measurement": "IL-18 release", "setting": "IL-18", "value": "dose-dependently inhibits the release"},
      {"measurement": "EC50", "setting": "[1]; [6]", "value": 20.2, "unit": "nM"},
      {"measurement": "inhibition of TNF release", "setting": "[1]; [5]", "value": "inhibited TNF release in a dose dependent manner"},
      {"measurement": "inhibition of TNF release", "setting": "[1]; macrophage culture media conditioned by exposure to LPS for 20 hours (not shown)", "value": "Comparable inhibition of TNF release"},
      {"measurement": "IL-10 release", "setting": "IL-10", "value": "does not prevent the constitutive release"},
      {"measurement": "cytotoxicity (MTT, Trypan blue exclusion)", "setting": "macrophage cultures", "value": "not due to cytotoxicity"},
      {"measurement": "acetylcholine-treated LPS-stimulated IL-6 mRNA", "setting": "IL-6 mRNA", "value": 1872, "unit": "attomole/ml"},
      {"measurement": "LPS-stimulated TNF immunoreactivity in macrophages", "setting": "TNF", "value": "significantly attenuated"},
      {"measurement": "TNF mRNA levels", "setting": "TNF mRNA", "value": "did not decrease"},
      {"measurement": "EC50", "setting": "[4]", "value": 800, "unit": "nM"},
      {"measurement": "IL-1β release", "setting": "IL-1β", "value": "dose-dependently inhibits the release"},
      {"measurement": "acetylcholine-treated LPS-stimulated IL-1β mRNA", "setting": "IL-1β mRNA", "value": 2128, "unit": "attomole/ml"}
    ]}
  ]
}
